# Assay results published in patent US5215982A, “Cephem compounds” (Fujisawa Pharmaceutical Co., Ltd., priority 1989, dated 1993).
# Tested on: E. coli 31
# Experiment: In vitro antibacterial activity, two-fold agar-plate dilution method (MIC)
# Assay type: cell-based
# Conditions: Escherichia coli, 10^6 viable cells per ml, heart infusion agar, 37° C., 20 hours, read-out: MIC (minimal inhibitory concentration)
# Procedure: Now in order to show the utility of the object compound (I), the test data on MIC (minimal inhibitory concentration) of a representative compound of the compound (I) are shown in the following.
# In vitro antibacterial activity was determined by the two-fold agar-plate dilution method as described below.
# One loopful of an overnight culture of each test strain in Trypticase-soy broth (10^6 viable cells per ml) was streaked on heart infusion agar (HI-agar) containing graded concentrations of representative test compound, and the minimal inhibitory concentration (MIC) was expressed in terms of μg/ml after incubation at 37° C. for 20 hours.
structure (smiles),measurement,value
"CON=C(C(=O)NC1C(=O)N2C(C(=O)[O-])=C(C[n+]3ccc4[nH]ccn43)CSC12)c1nsc(N)n1 (stereo not drawn) [Test Compound (1), 7β-[2-(5-Amino-1,2,4-thiadiazol-3-yl)-2-methoxyiminoacetamido]-3-[5-(1H-imidazo[1,2-b]pyrazolio)]methyl-3-cephem-4-carboxylate (syn isomer)]",MIC,≤ 0.025 µg/mL
